Results taken from patent publication US10143686B2, “Oxidosqualene cyclase as a protein target for anticancer therapeutics” (The Curators of the University of Missouri, priority 2010, dated 2018).
Where a name gives a salt, the structure may show the parent alone. Read-outs that look alike come from different tables or passages of the source.

Experiments:
[1] = system: SK-OV-3 ovarian cancer cells; assay: SRB cell viability assay, SK-OV-3; format: cell-based; conditions: Homo sapiens, SK-OV-3, Ovary
Method: (§1) The effect of OSC inhibition was evaluated in additional cancer cell lines as well. Cancer cell lines may be purchased from ATCC (Manassas, Va.). The SRB assay has been employed for determination of the inhibitory effects of RO 48-8071 on growth of different cancer cells. Cells were seeded into 96-well plates and incubated overnight at 37° C. with 5% CO2. The culture medium was removed after 24 hours, and cells were washed with DMEM/F12 medium and then treated with various concentrations of RO 48-8071 in 5% FBS culture medium for 24 and 48 hours. Surviving or adherent cells were fixed in situ by withdrawing the growth medium, adding 100 μl PBS and 100 μl 50% trichloroacetic acid and then incubating at 4° C. for one hour. Cells were washed with ice-cold water, dried at room temperature (RT), and then stained with 50 μl 4% SRB for eight minutes at RT. Unbound dye was removed by washing with cold 1% acetic acid for five times, and plates were dried at RT. Bound stain was solubilized with 150 μl 10 mM Tris buffer and absorbance of samples was read at 520 nm with a SpecTRA MAX 190 microplate reader (Molecular Devices, Sunnyvale, Calif.). Six wells were used for each concentration, and each experiment was performed two to three times.
Effect of RO 48-8071 on ovarian cancer cell line SK-OV-3 viability. […]

[2] = system: BT-474 human breast cancer xenograft; assay: BT-474 breast tumor xenograft in nude mice
Method: Female athymic nu/nu nude mice, 5 to 6 weeks-old (18-22 g) were purchased from Harland Sprague-Dawley, Inc. Nude mice were inoculated with 17-β-Estradiol pellets (1.7 mg/pellet, 60 days release) 48 hours before inoculating tumor cells. BT-474 human breast cancer cells, 5×10^6 in 0.15 ml solution mixed with matrigel and DMEM/F12 medium (4/1, v/v) were injected into each flank of mouse subcutaneously and both flanks of each mouse were injected. When tumor volume reached around 100 mm3, animal were randomly assigned to three groups and the treatment started with RO 48-8071 (5 mg/kg/day or 10 mg/kg/day) via tail-vein injection for five days, followed by same treatment every other day for five additional times as shown in the FIG. 13A. Animals in control group received the vehicle alone under identical conditions. Tumor volumes were measured by a digital caliper and calculated using the formula (L×W×H)×0.5236.
Animal weight was monitored throughout the experiment.

[3] = system: BT-474 breast cancer cells; assay: SRB cell viability assay, BT-474; format: cell-based, human; conditions: for IC50: Homo sapiens, BT-474, Breast (ER+ PR+)
Method: The sulforhodamine B (SRB) assay was employed to evaluate the effect of OSC inhibitor Ro 48-8071 on viability of breast cancer and normal mammary gland cells with slight modification of the original procedure established at NCI. Accordingly, the cells were seeded in 96-well plates in 100 μl culture medium and incubated overnight at 37° C. with 5% CO2. […] The surviving or adherent cells were fixed in situ by withdrawing the growth medium and adding 100 μl of PBS and 100 μl of 50% cold trichloroacetic acid and then incubating at 4° C. for 1 h. The surviving cells were washed with ice-water, dried at room temperature (RT), and then stained with 50 μl 4% SRB for 8 min at RT. Unbound dye was removed by washing 5 times with cold 1% acetic acid, and the plates were dried at RT. Bound stain was solubilized with 150 μl 10 mM Tris buffer, and absorbance of samples were measured at 520 nm with a SpecTRA MAX 190 microplate reader (Sunnyvale, Calif.). In these experiments on BT-474, T47-D, and AG11132A cell lines, six wells were used for each concentration, and each experiment was performed at least twice.
as §1
Effect of RO 48-8071 on breast cancer cell line BT-474 viability. […] The culture mediums employed 10% FBS DMEM/F12 for culture and 5% FBS DMEM/F12 for treatment.

[4] = 24 hours, read-out: IC50 (μM) (24 hours)
[5] = 48 hours, read-out: IC50 (μM) (48 hours)

Compound: C=CCN(C)CCCCCCOc1ccc(C(=O)c2ccc(Br)cc2)c(F)c1 [Ro 48-8071, 4′-[6-(Allylmethylamino)hexyloxy]-4-bromo-2′-fluorobenzophenone fumarate]
- IC50 [1, 4]: 18.3 ± 0.639 µM
- IC50 [1, 5]: 12.7 ± 0.521 µM
- tumor volume versus control group ([2]; 5 or 10 mg/kg/day, tail-vein injection, P<0.05 ANOVA, FIG. 13A): Significant differences were observed compared with control group
- toxicity at doses used for inhibiting tumor growth ([2]; BT-474 tumor-bearing nude mice): non-toxic
- animal weight, control versus treated groups ([2]; BT-474 tumor-bearing nude mice, FIG. 13B): No significant difference
- effect on cell viability (SRB) ([3]; BT-474, 24 hours, dose-dependent, FIG. 2A): significantly inhibit the viability
- IC50 [3, 4]: 9.514 ± 0.05 µM
- IC50 [3, 5]: 6.06 ± 0.233 µM
